Laboratory results: patent US20260092071A1, “COMPOUNDS AND COMPOSITIONS AS SMARCA2/4 DEGRADERS AND USES THEREOF” (REGENTS OF THE UNIVERSITY OF MICHIGAN, priority 2022, published 2026)

Tests used:
SMARCA2 = SMARCA2 (Homo sapiens, UniProt P51531); test: HiBit assay in engineered HT1080 CRISPR knock-in cell, 6 hrs (B series), SMARCA2; type: cell-based; settings: 6 hrs incubation; for DC50: read-out: SMARC A2 HT1080 HiBit DC50; for Dmax: HT-1080, HT1080 CRISPR knock-in cells, read-out: SMARC A2 HT1080 HiBit Dmax (%)
SMARCA2, sequence (P51531 whole entry): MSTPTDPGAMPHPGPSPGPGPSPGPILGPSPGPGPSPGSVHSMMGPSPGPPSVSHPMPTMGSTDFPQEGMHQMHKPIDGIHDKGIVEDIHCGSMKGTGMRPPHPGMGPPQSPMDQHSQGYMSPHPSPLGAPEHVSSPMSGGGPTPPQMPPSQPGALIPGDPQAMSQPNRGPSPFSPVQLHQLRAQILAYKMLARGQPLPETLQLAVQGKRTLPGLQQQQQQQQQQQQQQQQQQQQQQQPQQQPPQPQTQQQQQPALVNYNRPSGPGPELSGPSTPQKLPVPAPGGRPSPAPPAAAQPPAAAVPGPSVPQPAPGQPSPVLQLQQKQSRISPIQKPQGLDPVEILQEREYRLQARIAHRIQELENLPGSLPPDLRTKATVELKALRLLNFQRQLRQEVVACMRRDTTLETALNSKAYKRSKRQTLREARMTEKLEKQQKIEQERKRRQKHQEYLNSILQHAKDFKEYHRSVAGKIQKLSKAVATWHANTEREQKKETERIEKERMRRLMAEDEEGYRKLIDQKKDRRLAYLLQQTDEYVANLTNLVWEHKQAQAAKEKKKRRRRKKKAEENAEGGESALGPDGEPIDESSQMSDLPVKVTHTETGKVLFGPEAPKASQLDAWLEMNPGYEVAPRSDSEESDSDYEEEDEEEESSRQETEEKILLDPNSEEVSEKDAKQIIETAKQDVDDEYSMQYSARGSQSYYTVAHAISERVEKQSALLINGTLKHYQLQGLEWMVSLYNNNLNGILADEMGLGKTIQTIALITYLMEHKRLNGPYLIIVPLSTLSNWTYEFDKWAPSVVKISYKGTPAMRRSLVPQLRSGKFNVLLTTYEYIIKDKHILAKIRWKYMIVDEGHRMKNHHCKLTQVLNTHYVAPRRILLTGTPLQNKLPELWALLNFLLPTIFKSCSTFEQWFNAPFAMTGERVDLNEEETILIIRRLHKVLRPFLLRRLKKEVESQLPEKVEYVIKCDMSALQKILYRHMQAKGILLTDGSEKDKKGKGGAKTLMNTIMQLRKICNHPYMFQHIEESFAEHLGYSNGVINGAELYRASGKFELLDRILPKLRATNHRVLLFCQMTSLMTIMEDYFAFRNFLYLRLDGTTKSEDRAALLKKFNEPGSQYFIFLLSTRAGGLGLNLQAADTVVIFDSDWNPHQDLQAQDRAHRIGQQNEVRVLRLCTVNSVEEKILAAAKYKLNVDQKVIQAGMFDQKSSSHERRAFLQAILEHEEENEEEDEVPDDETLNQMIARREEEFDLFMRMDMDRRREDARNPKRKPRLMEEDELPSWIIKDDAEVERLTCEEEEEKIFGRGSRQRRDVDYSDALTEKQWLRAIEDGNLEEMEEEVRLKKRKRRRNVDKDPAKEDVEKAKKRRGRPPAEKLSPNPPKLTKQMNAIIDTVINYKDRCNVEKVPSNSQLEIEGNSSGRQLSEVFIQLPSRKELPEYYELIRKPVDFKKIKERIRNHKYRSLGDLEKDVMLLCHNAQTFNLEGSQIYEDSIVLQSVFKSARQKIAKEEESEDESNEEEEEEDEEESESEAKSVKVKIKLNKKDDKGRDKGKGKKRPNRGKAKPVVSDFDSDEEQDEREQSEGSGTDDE
Outline: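 HT1080 CRISPR knock-in cells carrying the HiBiT tag were seeded onto compounds (final DMSO 0.1%) and incubated 6 hrs at 37° C, 5% CO2. Remaining tagged protein was detected by lytic HiBiT luminescence after adding LgBiT protein and substrate, with LgBiT-free wells serving as negative control.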

SMARCA4 = SMARCA4 (Homo sapiens, UniProt P51532); test: HiBit assay in engineered HT1080 CRISPR knock-in cell, 6 hrs (B series), SMARCA4; type: cell-based; settings: 6 hrs incubation; for DC50: read-out: SMARC A4 HT1080 HiBit DC50; for Dmax: HT-1080, HT1080 CRISPR knock-in cells, read-out: SMARC A4 HT1080 HiBit Dmax(%)
SMARCA4, sequence (P51532 whole entry): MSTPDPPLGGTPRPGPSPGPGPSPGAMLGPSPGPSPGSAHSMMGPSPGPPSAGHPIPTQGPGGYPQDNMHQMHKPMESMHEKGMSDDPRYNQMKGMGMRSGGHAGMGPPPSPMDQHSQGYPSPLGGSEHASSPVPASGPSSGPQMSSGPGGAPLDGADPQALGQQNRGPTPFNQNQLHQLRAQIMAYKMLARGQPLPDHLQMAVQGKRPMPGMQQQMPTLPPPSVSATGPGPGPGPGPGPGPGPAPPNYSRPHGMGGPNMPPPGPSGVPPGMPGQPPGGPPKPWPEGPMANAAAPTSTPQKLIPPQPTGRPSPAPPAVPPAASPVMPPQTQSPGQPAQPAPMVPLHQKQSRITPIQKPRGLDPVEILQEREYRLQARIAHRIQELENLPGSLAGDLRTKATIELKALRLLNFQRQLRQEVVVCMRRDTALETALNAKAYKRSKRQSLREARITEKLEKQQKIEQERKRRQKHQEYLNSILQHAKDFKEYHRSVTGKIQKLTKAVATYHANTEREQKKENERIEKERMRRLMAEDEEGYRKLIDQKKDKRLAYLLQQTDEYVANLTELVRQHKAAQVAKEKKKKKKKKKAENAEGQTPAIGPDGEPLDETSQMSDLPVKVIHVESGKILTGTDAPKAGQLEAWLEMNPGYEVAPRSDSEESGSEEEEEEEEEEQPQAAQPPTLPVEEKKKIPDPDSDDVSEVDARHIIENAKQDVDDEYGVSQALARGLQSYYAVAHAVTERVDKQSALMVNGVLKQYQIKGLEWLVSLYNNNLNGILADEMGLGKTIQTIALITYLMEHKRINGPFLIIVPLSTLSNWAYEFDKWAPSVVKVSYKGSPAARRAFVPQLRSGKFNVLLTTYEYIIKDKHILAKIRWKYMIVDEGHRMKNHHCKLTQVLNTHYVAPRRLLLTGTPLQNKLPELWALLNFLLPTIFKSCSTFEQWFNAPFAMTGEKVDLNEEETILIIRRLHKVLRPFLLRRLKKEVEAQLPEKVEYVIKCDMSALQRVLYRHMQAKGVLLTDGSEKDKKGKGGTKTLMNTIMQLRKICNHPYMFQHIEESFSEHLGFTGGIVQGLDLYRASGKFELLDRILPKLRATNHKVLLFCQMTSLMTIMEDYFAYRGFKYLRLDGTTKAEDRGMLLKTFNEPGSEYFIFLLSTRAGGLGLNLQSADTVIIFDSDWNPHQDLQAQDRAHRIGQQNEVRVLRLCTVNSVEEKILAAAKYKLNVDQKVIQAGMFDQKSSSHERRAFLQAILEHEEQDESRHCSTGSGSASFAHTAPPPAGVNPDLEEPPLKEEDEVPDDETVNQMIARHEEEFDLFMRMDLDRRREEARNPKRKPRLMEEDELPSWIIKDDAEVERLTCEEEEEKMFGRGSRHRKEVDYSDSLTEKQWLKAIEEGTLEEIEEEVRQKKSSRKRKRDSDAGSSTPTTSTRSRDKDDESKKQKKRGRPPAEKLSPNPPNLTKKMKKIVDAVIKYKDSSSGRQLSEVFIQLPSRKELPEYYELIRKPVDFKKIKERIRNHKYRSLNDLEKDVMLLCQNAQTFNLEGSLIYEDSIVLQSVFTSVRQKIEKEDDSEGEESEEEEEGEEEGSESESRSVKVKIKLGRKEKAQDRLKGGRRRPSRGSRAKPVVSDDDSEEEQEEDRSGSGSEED
Outline: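 Compounds were dispensed first, then HT1080 knock-in cells added and incubated for 6 hrs at 37° C. Next, detection reagent containing LgBiT and lytic substrate was added. Plates were shaken 10 min and centrifuged, and luminescence was measured.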

Cc1ncsc1-c1ccc([C@H](C)NC(=O)[C@@H]2C[C@@H](O)CN2C(=O)[C@@H](c2cc(OCCCCN3CCC(c4ccc5c(c4)-n4c(nc(=O)c6c(Cl)cccc64)C5(C)C)CC3)no2)C(C)C)cc1 [Compound B27, (2S,4R)-1-((R)-2-(3-(4-(4-(4-chloro-7,7-dimethyl-5-oxo-5,7-dihydroindolo[1,2-a]quinazolin-10-yl)piperidin-1-yl)butoxy)isoxazol-5-yl)-3-methylbutanoyl)-4-hydroxy-N-((S)-1-(4-(4-methylthiazol-5-yl)phenyl)ethyl)pyrrolidine-2-carboxamide]
DC50 (SMARCA2; HT1080 CRISPR knock-in cells): < 100 nM | Dmax (SMARCA2): > 90% | DC50 (SMARCA4; HT1080 CRISPR knock-in cells): < 100 nM | Dmax (SMARCA4): 70 to 90%

Cc1ncsc1-c1ccc(CNC(=O)[C@@H]2C[C@@H](O)CN2C(=O)[C@@H](NC(=O)C2(F)CC2)C(C)(C)C)c(OCCN2CCC(c3ccc4c(c3)-n3c(nc(=O)c5c(Cl)cccc53)C4(C)C)CC2)c1 [Compound B34, (2S,4R)-N-(2-(2-(4-(4-chloro-7,7-dimethyl-5-oxo-5,7-dihydroindolo[1,2-a]quinazolin-10-yl)piperidin-1-yl)ethoxy)-4-(4-methylthiazol-5-yl)benzyl)-1-((S)-2-(1-fluorocyclopropane-1-carboxamido)-3,3-dimethylbutanoyl)-4-hydroxypyrrolidine-2-carboxamide]
DC50 (SMARCA2; HT1080 CRISPR knock-in cells): < 100 nM | Dmax (SMARCA2): > 90% | DC50 (SMARCA4; HT1080 CRISPR knock-in cells): < 100 nM | Dmax (SMARCA4): > 90%

Cc1ncsc1-c1ccc([C@H](C)NC(=O)[C@@H]2C[C@@H](O)CN2C(=O)[C@@H](c2cc(OCCc3cccc4c3C(C)(C)c3nc(=O)c5c(Cl)cccc5n3-4)no2)C(C)C)cc1 [Compound B116, (2S,4R)-1-((R)-2-(3-(2-(4-chloro-7,7-dimethyl-5-oxo-5,7-dihydroindolo[1,2-a]quinazolin-8-yl)ethoxy)isoxazol-5-yl)-3-methylbutanoyl)-4-hydroxy-N—((S)-1-(4-(4-methylthiazol-5-yl)phenyl)ethyl)pyrrolidine-2-carboxamide]
DC50 (SMARCA2; HT1080 CRISPR knock-in cells): < 100 nM | Dmax (SMARCA2): 70 to 90% | DC50 (SMARCA4; HT1080 CRISPR knock-in cells): > 1000 nM | Dmax (SMARCA4): < 50%

Cc1ncsc1-c1ccc([C@H](C)NC(=O)[C@@H]2C[C@@H](O)CN2C(=O)[C@@H](n2cc([C@H](C)N3CCC(c4ccc5c(c4)-n4c(nc(=O)c6c(Cl)cccc64)C5(C)C)CC3)nn2)C(C)(C)C)cc1 [Compound B68, (2S,4R)-1-((S)-2-(4-((S)-1-(4-(4-chloro-7,7-dimethyl-5-oxo-5,7-dihydroindolo[1,2-a]quinazolin-10-yl)piperidin-1-yl)ethyl)-1H-1,2,3-triazol-1-yl)-3,3-dimethylbutanoyl)-4-hydroxy-N-((S)-1-(4-(4-methylthiazol-5-yl)phenyl)ethyl)pyrrolidine-2-carboxamide]
DC50 (SMARCA2; HT1080 CRISPR knock-in cells): < 100 nM | Dmax (SMARCA2): > 90% | DC50 (SMARCA4; HT1080 CRISPR knock-in cells): 501 to 1000 nM | Dmax (SMARCA4): < 50%

Cc1ncsc1-c1ccc([C@H](CC(=O)NCC2CCC(N3CCC(c4ccc5c(c4)-n4c(nc(=O)c6c(Cl)cccc64)C5(C)C)CC3)CC2)NC(=O)[C@@H]2C[C@@H](O)CN2C(=O)[C@@H](NC(=O)C2(F)CC2)C(C)(C)C)cc1 (stereo partly drawn) [Compound B54, (2S,4R)-N-((S)-3-(((4-(4-(4-chloro-7,7-dimethyl-5-oxo-5,7-dihydroindolo[1,2-a]quinazolin-10-yl)piperidin-1-yl)cyclohexyl)methyl)amino)-1-(4-(4-methylthiazol-5-yl)phenyl)-3-oxopropyl)-1-((S)-2-(1-fluorocyclopropane-1-carboxamido)-3,3-dimethylbutanoyl)-4-hydroxypyrrolidine-2-carboxamide]
SMARC A2 HT1080 HiBit Dmax (%) (SMARCA2; HT1080 CRISPR knock-in cells): D (D (<50% degradation)) | DC50 (SMARCA2; HT1080 CRISPR knock-in cells): 100 to 500 nM | SMARC A4 HT1080 HiBit Dmax(%) (SMARCA4; HT1080 CRISPR knock-in cells): D (D (<50% degradation)) | DC50 (SMARCA4; HT1080 CRISPR knock-in cells): 100 to 500 nM
